IC50 and inhibition data for 28 molecules are collected here from patent US8134015B2, “Compound inhibiting in vivo phosphorous transport and medicine containing the same” (Kyowa Hakko Kirin Co., Ltd., priority 2003, dated 2012).

What is called pIC50 is −log10 of the IC50, conventionally taken in molar units. Broadly, the inhibition is the relative decrease from the control value, in per cent.

pIC50: −log10 of the molar value.

For the first experiment, the target named is T1, rat NaPi-2b (Rattus norvegicus, UniProt Q9JJ09).
T1 construct: expressed in transfected cells; host or cells: Xenopus oocytes injected with cRNA
T1 sequence (Q9JJ09 1-695): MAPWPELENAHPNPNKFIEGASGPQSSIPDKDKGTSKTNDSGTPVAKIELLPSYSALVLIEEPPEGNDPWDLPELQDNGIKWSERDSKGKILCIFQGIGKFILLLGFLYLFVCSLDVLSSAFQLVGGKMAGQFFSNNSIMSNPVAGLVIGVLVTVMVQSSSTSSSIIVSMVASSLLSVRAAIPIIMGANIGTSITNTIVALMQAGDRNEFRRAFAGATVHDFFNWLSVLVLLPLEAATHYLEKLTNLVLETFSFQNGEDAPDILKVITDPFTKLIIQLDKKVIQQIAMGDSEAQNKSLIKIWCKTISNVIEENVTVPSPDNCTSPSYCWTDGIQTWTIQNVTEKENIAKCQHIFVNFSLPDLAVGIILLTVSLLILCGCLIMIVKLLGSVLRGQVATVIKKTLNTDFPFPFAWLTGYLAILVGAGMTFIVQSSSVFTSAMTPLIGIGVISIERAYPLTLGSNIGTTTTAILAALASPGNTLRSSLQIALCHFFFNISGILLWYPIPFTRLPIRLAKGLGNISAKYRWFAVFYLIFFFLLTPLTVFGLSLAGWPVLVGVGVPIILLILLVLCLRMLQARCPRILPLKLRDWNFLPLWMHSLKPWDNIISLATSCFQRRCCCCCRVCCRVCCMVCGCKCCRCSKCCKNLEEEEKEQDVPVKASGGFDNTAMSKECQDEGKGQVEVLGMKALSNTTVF
As to the kind of experiment: Sodium-dependent phosphate uptake of Xenopus oocytes which expressed NaPi-2b (32P). The conditions noted are these: Xenopus oocytes expressing rat NaPi-2b, 32P radioactive phosphorus; read-out: IC50 (phosphate uptake inhibitory activity). Type of experiment: cell-based. The method, boiled down: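 Rat NaPi-2b cloned from small-intestine cDNA; cRNA injected into Xenopus oocytes, expression for 2 days. Phosphate uptake inhibition measured with 32P; percent inhibition at 300 μM and 100 μM read from the same inhibition curve.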
`Cc1ccc(C=NNC(=O)c2cc(Cl)ccc2NC(=O)c2cccc(CS(=O)(=O)CCO)c2)cc1C` [Compound 493, N-[4-Chloro-2-(3,4-dimethyl-benzylidene-hydrazinocarbonyl)-phenyl]-3-(2-hydroxy-ethanesulfonylmethyl)-benzamide]: the pIC50 is above 5.52. Same read-out and setting: the value for `COc1ccc(/C=N/NC(=O)c2cc(OCCCN3CCCCC3)ccc2NC(=O)c2cccc(CSCCO)c2)cc1` [Compound 1040, 3-(2-Hydroxy-ethylsulfanylmethyl)-N-[2-(4-methoxy-benzylidene-hydrazinocarbonyl)-4-(3-piperidin-1-yl-propoxy)-phenyl]-benzamide] was 4.28; that for `Cc1csc(NC(=O)c2cccc(CN3CCN(CCO)CC3)c2)c1C(=O)N/N=C/c1cccc(F)c1` [Compound 578, N-[3-(3-Fluoro-benzylidene-hydrazinocarbonyl)-4-methyl-thiophen-2-yl]-3-[4-(2-hydroxy-ethyl)-piperazin-1-ylmethyl]-benzamide] was above 5.52.

On to `CCN(CC)CCOc1ccc(NC(=O)c2ccc(OC)c(OC)c2)c(C(=O)N/N=C/c2ccc(F)cc2)c1` [Compound 140, N-[4-(2-Diethylamino-ethoxy)-2-(4-fluoro-benzylidene-hydrazinocarbonyl)-phenyl]-3,4-dimethoxy-benzamide], for which the pIC50 is 4.13. Turning to `CN(CCO)Cc1cccc(C(=O)Nc2ccc(Cl)cc2C(=O)N/N=C/c2ccc(F)cc2)c1` [Compound 395, N-[4-Chloro-2-(4-fluoro-benzylidene-hydrazinocarbonyl)-phenyl]-3-{[(2-hydroxy-ethyl)-methyl-amino]-methyl}-benzamide], the pIC50 is 5.07. With `COc1ccc(/C=N/NC(=O)c2cc(N3CCCCC3)ccc2NC(=O)c2cccc(CN3CCC(O)CC3)c2)cc1` [Compound 875, 3-(4-Hydroxy-piperidin-1-ylmethyl)-N-[2-(4-methoxy-benzylidene-hydrazinocarbonyl)-4-piperidin-1-yl-phenyl]-benzamide], the pIC50 was 5.28. With `CCN(CC)CCN(C)Cc1cccc(C(=O)Nc2scc(C)c2C(=O)N/N=C/c2ccc(OC)cc2)c1` [Compound 568, 3-{[(2-Diethylamino-ethyl)-methyl-amino]-methyl}-N-[3-(4-methoxy-benzylidene-hydrazinocarbonyl)-4-methyl-thiophen-2-yl]-benzamide], the negative-log IC50 (pIC50) is 5.36.

Turning to `COc1cccc(/C=N/NC(=O)c2cc(Br)ccc2NC(=O)c2ccc(CN3CCC(O)CC3)cc2)c1` [Compound 331, N-[4-Bromo-2-(3-methoxy-benzylidene-hydrazinocarbonyl)-phenyl]-4-(4-hydroxy-piperidin-1-ylmethyl)-benzamide], the pIC50 is 4.80. For `O=C(Nc1sc2c(c1C(=O)N/N=C/c1ccc(F)cc1)CCCC2)c1cccc(CN2CCN(CCO)CC2)c1` [Compound 623, N-[3-(4-Fluoro-benzylidene-hydrazinocarbonyl)-4,5,6,7-tetrahydro-benzo[b]thiophen-2-yl]-3-[4-(2-hydroxy-ethyl)-piperazin-1-ylmethyl]-benzamide], the negative logarithm of the IC50 (pIC50) is above 5.52.

As to `COc1cc(OC)cc(C(=O)Nc2ccccc2C(=O)N/N=C/c2cccc(F)c2)c1` [Compound 55, N-[2-(3-Fluoro-benzylidene-hydrazinocarbonyl)-phenyl]-3,5-dimethoxy-benzamide], the negative-log IC50 (pIC50) was 6.07. Turning to `O=C(Nc1ccc(Br)cc1C(=O)N/N=C/c1ccc(F)cc1)c1ccc(CSc2ccncc2)cc1` [Compound 256, N-[4-Bromo-2-(4-fluoro-benzylidene-hydrazinocarbonyl)-phenyl]-4-(pyridin-4-ylsulfanylmethyl)-benzamide], the pIC50 is above 5.00. As to `Cc1ccc(/C=N/NC(=O)c2ccccc2NC(=O)c2ccccn2)cc1C` [Compound 507, Pyridin-2-carboxylic acid [2-(3,4-dimethyl-benzylidene-hydrazinocarbonyl)-phenyl]-amide], the pIC50 was 5.73. Take `CCN(CC)CCN(C)Cc1cccc(C(=O)Nc2sccc2C(=O)N/N=C/c2ccc(Cl)c(C(F)(F)F)c2)c1` [Compound 668, N-[3-(4-Chloro-3-trifluoromethyl-benzylidene-hydrazinocarbonyl)-thiophen-2-yl]-3-{[(2-diethylamino-ethyl)-methyl-amino]-methyl}-benzamide]: the negative logarithm of the IC50 (pIC50) was 5.04.

For `O=C(Nc1ccccc1C(=O)N/N=C/c1cccc(Cl)c1)c1cccc(OC(F)(F)F)c1` [Compound 122], the pIC50 is above 5.52. As to `CCN(CC)CCN(C)Cc1ccc(C(=O)Nc2ccc(Br)cc2C(=O)NN=Cc2ccc(F)cc2)cc1` [Compound 287, N-[4-Bromo-2-(4-fluoro-benzylidene-hydrazinocarbonyl)-phenyl]-4-{[(2-diethylamino-ethyl)-methyl-amino]-methyl}-benzamide], the pIC50 is 6.96. On to `CCN(CC)CCN(C)Cc1cccc(C(=O)Nc2sc3c(c2C(=O)N/N=C(\C)c2cccc(F)c2)CCCC3)c1` [Compound 1003, 3-{[(2-Diethylamino-ethyl)-methyl-amino]-methyl}-N-{3-[1-(3-fluoro-phenyl)-ethylidene-hydrazinocarbonyl]-4,5,6,7-tetrahydro-benzo[b]thiophen-2-yl}-benzamide], for which the pIC50 was 5.04. In the case of `COc1ccc(C(=O)Nc2ccc(I)cc2C(=O)N/N=C/c2ccc(F)cc2)cc1OC` [Compound 205, N-[2-(4-Fluoro-benzylidene-hydrazinocarbonyl)-4-iodo-phenyl]-3,4-dimethoxy-benzamide], the negative logarithm of the IC50 (pIC50) is above 5.52. Consider `CCN(CC)CCN(C)Cc1ccc(C(=O)Nc2ccc(Br)cc2C(=O)N/N=C/c2cccc(OC)c2)cc1` [Compound 291, N-[4-Bromo-2-(3-methoxy-benzylidene-hydrazinocarbonyl)-phenyl]-4-{[(2-diethylamino-ethyl)-methyl-amino]-methyl}-benzamide], for which the pIC50 is 5.94.

Take `O=C(Nc1ccc(Cl)cc1C(=O)N/N=C/C=C/c1ccccc1)c1cccnc1` [Compound 348, N-[4-Chloro-2-(3-phenyl-allylidene-hydrazinocarbonyl)-phenyl]-nicotinamide]: the pIC50 is 4.78. For the molecule `O=C(Nc1ccc(Br)cc1C(=O)N/N=C/C=C/c1ccccc1)c1cccnc1` [Compound 346, N-[4-Bromo-2-(3-phenyl-allylidene-hydrazinocarbonyl)-phenyl]-nicotinamide], the pIC50 is 5.35.

Consider `Cc1ccc(/C=N/NC(=O)c2c(C)csc2NC(=O)c2cccc(CN(CC(C)O)CC(C)O)c2)cc1` (stereo not shown) [Compound 588, 3-{[Bis-(2-hydroxy-propyl)-amino]-methyl}-N-[4-methyl-3-(4-methyl-benzylidene-hydrazinocarbonyl)-thiophen-2-yl]-benzamide], for which the negative-log IC50 (pIC50) is 5.03.

On to `COc1ccc(/C=N/NC(=O)c2cc(Cl)ccc2NC(=O)c2cccc(CN3CCC(N4CCCCC4)CC3)c2)cc1` [Compound 375, 3-[1,4′]Bipiperidinyl-1′-ylmethyl-N-[4-chloro-2-(4-methoxy-benzylidene-hydrazinocarbonyl)-phenyl]-benzamide], for which the pIC50 is 4.61.

Regarding `O=C(Nc1ccccc1C(=O)N/N=C/c1cccc(O)c1)c1cccc(F)c1` [Compound 85, 3-Fluoro-N-[2-(3-hydroxy-benzylidene-hydrazinocarbonyl)-phenyl]-benzamide], the negative logarithm of the IC50 (pIC50) was 5.70. With `Cc1ccc(/C=N/NC(=O)c2c(C)csc2NC(=O)c2cccc(CN(CC(C)O)CC(C)O)c2)cc1C` (stereo not shown) [Compound 587, 3-{[Bis-(2-hydroxy-propyl)-amino]-methyl}-N-[3-(3,4-dimethyl-benzylidene-hydrazinocarbonyl)-4-methyl-thiophen-2-yl]-benzamide], the negative logarithm of the IC50 (pIC50) was above 5.52.

For `CCN(CC)CCN(C)Cc1cccc(C(=O)Nc2ccc(N3CCCC3)cc2C(=O)N/N=C/c2ccc(Cl)c(C(F)(F)F)c2)c1` [Compound 917, N-[2-(4-Chloro-3-trifluoromethyl-benzylidene-hydrazinocarbonyl)-4-pyrrolidin-1-yl-phenyl]-3-{[(2-diethylamino-ethyl)-methyl-amino]-methyl}-benzamide], the pIC50 is 5.90. In the case of `COc1ccc(/C=N/NC(=O)c2c(C)csc2NC(=O)c2cccc(CSCCCO)c2)cc1` [Compound 562, 3-(3-Hydroxy-propylsulfanylmethyl)-N-[3-(4-methoxy-benzylidene-hydrazinocarbonyl)-4-methyl-thiophen-2-yl]-benzamide], the pIC50 is above 6.00.

The experiment is the same for the next values; noted with them: phosphate uptake, oocytes expressing rat NaPi-2b; 300 μM, determined from inhibition curve.
As to `COc1ccc(/C=N/NC(=O)c2scc(C)c2NC(=O)c2cccc(CN3CCC(O)CC3)c2)cc1` [Compound 543, 3-(4-Hydroxy-piperidin-1-ylmethyl)-N-[2-(4-methoxy-benzylidene-hydrazinocarbonyl)-4-methyl-thiophen-3-yl]-benzamide], the inhibition at 300 µM was determined as 30.2%. On the same count and under the same terms, the value for `O=C(Nc1ccc(Cl)cc1C(=O)N/N=C/c1ccc(F)cc1)c1cccc(CSCCS(=O)(=O)O)c1` [Compound 708, 2-{3-[4-Chloro-2-(4-fluoro-benzylidene-hydrazinocarbonyl)-phenylcarbamoyl]-benzylsulfanyl}-ethanesulfonic acid] was 42%.
